The subject of assay [1] is HBeAg (surrogate marker for cccDNA) in HepDES19 cells. Briefly: Engineered HepDES19 primary screen assay (HBeAg ELISA). The format is cell-based, HBV. To be noted: Hepatitis B virus, HepDES19, 120 h, read-out: IC50 (HBeAg level, HepDES19 primary screen assay). The source says:
The assay was employed to screen for novel cccDNA inhibitors. HepDES19 is a cccDNA-producing cell line. In this cell line, HBeAg in the cell culture supernatant as surrogate marker, as HBeAg production depends on cccDNA level and activity. HepDES19 is an engineered cell line which contains a 1.1 unit length HBV genome, and pgRNA transcription from the transgene is controlled by Tetracycline (Tet). In the absence of Tet, pgRNA transcription will be induced, but HBV e antigen (HBeAg) could not be produced from this pgRNA due to very short leader sequence before the HBeAg start codon and the start codon is disrupted. Only after cccDNA is formed, the missing leader sequence and start codon mutation would be restored from the 3′-terminal redundancy of pgRNA, and then HBeAg could be synthesized. Therefore, HBeAg could be used as a surrogate marker for cccDNA (Zhou, T. et al., Antiviral Res. (2006), 72(2), 116-124; Guo, H. et al., J. Virol. (2007), 81(22), 12472-12484).
HepDES19 cells were seeded at 2×10^6 cells per T150 flask and cultured with the culture medium (Dulbecco's Modified Eagle Medium: Nutrient Mixture F-12 [DMEM-F12, Gibco Cat. 11320-82], 10% Fetal Bovine Serum [FBS, Clontech Cat. 631101], 0.1 mM Non-Essential Amino Acids Solution [NEAA, Gibco Cat. 11140-050], 50 μg/mL Penicillin-Streptomycin [PS, Invitrogen Cat. 15140-163], 500 μg/mL Geneticin [G418, Invitrogen Cat. 10131-027]) containing 3 μg/mL Tet (Sigma, Cat. 87128) for 5 days. Cells were then seeded at 4×10^6 cells per T150 in the same culture medium as described above in the absence of Tet for 8 days. Cells were then harvested and frozen at density of 2×10^6 cells per ML. For compound testing, the frozen cells were thawed and seeded into 96-well plates at a density of 6×10^4 cells per well. At 24 hours after seeding, half log serial dilutions of compounds made with Dimethyl sulfoxide (DMSO, Sigma, Cat. D2650) were further diluted with the same culture medium as described above before they were added to the cells to reach desired final compound concentrations and 1% DMSO concentration. Plates were then incubated at 37° C. for another 5 days before measurement of HBeAg level and cell viability. Intracellular HBeAg level were measured with enzyme-linked immunosorbent assay (ELISA) kit (Shanghai Kehua Diagnostic Medical Products Co., Ltd). Cell viability was assessed using Cell Counting Kit-8 (DonJindo, Cat. CK04-20). IC50 values were derived from the dose-response curve using 4 parameter logistic curve fit method.
The compounds of the present invention were tested for their capacity to inhibit extracellular HBeAg level as described herein.
A general note: ELISA stands for enzyme-linked immunosorbent assay.

Assay [2] concerns HBV (extracellular HBsAg) in PHH. Briefly: Cryopreserved primary human hepatocytes (PHH) HBV infection assay, HBsAg CLIA. In kind it is cell-based. To be noted: Hepatitis B virus, Hepatocyte, 216 h, read-out: HBsAg IC50. The protocol:
This assay is used to confirm the anti-HBV effect of the compounds in HBV PHH infection assay. Cryopreserved PHH (BioreclamationIVT, Lot YJM) was thawed at 37° C. and gently transferred into pre-warmed InVitroGRO HT medium (BioreclamationIVT, Cat. S03317). The mixture was centrifuged at 70 relative centrifugal force (RCF) for 3 minutes at RT, and the supernatant was discarded. Pre-warmed InVitroGRO CP medium (BioreclamationIVT, Cat #S03316) was added to the cell pellet to gently re-suspend cells. The cells were seeded at the density of 5.8×10^4 cells per well to collagen I coated 96-well plate (Gibco, Cat. A1142803) with the InVitroGRO CP medium. All plates were incubated at 37° C. with 5% CO2 and 85% humidity.
At 20 hours after plating, the medium was changed to PHH culture medium (Dulbecco's Modified Eagle Medium (DMEM)/F12 (1:1) (Gibco, Cat. 11320-033), 10% fetal bovine serum (Gibco Cat. 10099141), 100 U/mL penicillin, 100 μg/mL streptomycin (Gibco, Cat. 151401-122), […] (Invitrogen Cat. PHG0311L), 20 ng/mL dexamethasone (Sigma, Cat. D4902) and 250 ng/mL human recombinant insulin (Gibco, Cat. 12585-014)). And the cells were incubated at 37° C. with 5% CO2 and 85% humidity for 4 hours. The medium was then changed to pre-warmed PHH culture medium containing 4% polyethylene glycol (PEG) MW8000 (Sigma, Cat. P1458-50ML) and 1% DMSO (Sigma, Cat. D2650). 5.8×10^6 genomic equivalents of HBV were added into the medium.
At 24 hours post-infection, the cells were gently washed with PBS and refreshed with PHH culture medium supplemented with 1% DMSO, and 0.25 mg/mL Matrix gel (Corning, Cat. 356237) at 200 μL per well. All plates were immediately placed in at 37° C. CO2 incubator.
24 hours later, serial dilutions of compounds made with DMSO were further diluted with the same culture medium (PHH culture medium supplemented with 1% DMSO and 0.25 mg/mL Matrix gel as described above) before they were added to the cells to reach desired final compound concentrations and 1% DMSO concentration. The medium containing the compounds were refreshed every three days.
At 9 days post-compound treatment, extracellular HBsAg level were measured with Chemiluminescence Immuno Assay (CLIA) kit (Autobio, HBsAg Quantitative CLIA). Extracellular HBV DNA was extracted by MagNA Pure 96 system (Roche) and then determined by quantitative PCR with the following primers and probe: […]
HBsAg IC50 and HBV DNA IC50 values were derived from the dose-response curve using 4 parameter logistic curve fit method. The compounds of formula (I) have HBsAg IC50<20 μM, particularly <1 μM; and HBV DNA IC50<50 μM.

By IC50 is commonly meant the midpoint of a concentration-inhibition curve.

Turning to `COc1cc(Br)c(OCCO[C@H]2C[C@@H](C(=O)O)C2)cc1-c1cc(=O)c2cccc(Cl)c2o1` [Example 1, Cis-3-[2-[2-bromo-5-(8-chloro-4-oxo-chromen-2-yl)-4-methoxy-phenoxy]ethoxy]cyclobutanecarboxylic acid], the results for the 50% inhibitory concentration (IC50) in assay [1] and in assay [2] were 3.18 µM and 8.02 µM, respectively.
`COc1cc(Br)c(OCCC(=O)O)cc1-c1cc(=O)c2cccc(Cl)c2o1` [Example 2, 3-[2-Bromo-5-(8-chloro-4-oxo-chromen-2-yl)-4-methoxy-phenoxy]propanoic acid]: the values for the IC50 in assay [1] and in assay [2] were 1.19 µM and 3.85 µM, respectively.
The corresponding values for `COc1cc(Br)c(OC2CC(C(=O)O)C2)cc1-c1cc(=O)c2cccc(Cl)c2o1` (stereo not shown) [Example 5, 3-[2-Bromo-5-(8-chloro-4-oxo-chromen-2-yl)-4-methoxy-phenoxy]cyclobutanecarboxylic acid] are 6.08 µM and 4.09 µM.
Turning to `COc1cc(Cl)c(OCCO[C@H]2C[C@@H](C(=O)O)C2)cc1-c1cc(=O)c2cccc(Cl)c2o1` [Example 8, Cis-3-[2-[2-chloro-5-(8-chloro-4-oxo-chromen-2-yl)-4-methoxy-phenoxy]ethoxy]cyclobutanecarboxylic acid], the figures for the 50% inhibitory concentration (IC50) in assay [1] and in assay [2] were 1.5 µM and 5.13 µM, respectively.
As for `COc1cc(C)c(OCCCOCC(=O)O)cc1-c1cc(=O)c2cccc(Cl)c2o1` [Example 11, 2-[3-[5-(8-Chloro-4-oxo-chromen-2-yl)-4-methoxy-2-methyl-phenoxy]propoxy]acetic acid], the IC50 in assay [1] was 2.43 µM; in assay [2], 7.4 µM.
`Cc1ccc(-c2cc(=O)c3cccc(Cl)c3o2)cc1O[C@H]1C[C@@H](C(=O)O)C1` [Example 15, Cis-3-[5-(8-chloro-4-oxo-chromen-2-yl)-2-methyl-phenoxy]cyclobutanecarboxylic acid]: the IC50 was determined as 0.49 µM in assay [1] and 1.96 µM in assay [2].
The corresponding values for `O=C(O)COc1cc(-c2cc(=O)c3cccc(Cl)c3o2)ccc1C(F)(F)F` [Example 22, 2-[5-(8-Chloro-4-oxo-chromen-2-yl)-2-(trifluoromethyl)phenoxy]acetic acid] are 0.32 µM and 6.59 µM.
`COc1ccc(OCCO[C@H]2C[C@@H](C(=O)O)C2)cc1-c1cc(=O)c2cccc(Cl)c2o1` [Example 31, Cis-3-[2-[3-(8-Chloro-4-oxo-chromen-2-yl)-4-methoxy-phenoxy]ethoxy]cyclobutanecarboxylic acid]: the results for the IC50 in assay [1] and in assay [2] were 4.66 µM and 10.2 µM, respectively.
As to `COc1c(-c2cc(=O)c3cccc(Cl)c3o2)ccc(Br)c1OC1CC(C(=O)O)C1` (stereo not shown) [Example 35, 3-[6-Bromo-3-(8-chloro-4-oxo-chromen-2-yl)-2-methoxy-phenoxy]cyclobutanecarboxylic acid], the IC50 in assay [1] was determined as 0.19 µM; in assay [2], 3.91 µM.
Consider `COc1c(-c2cc(=O)c3cccc(Cl)c3o2)ccc(C)c1OC1CC(C(=O)O)C1` (stereo not shown) [Example 36, 3-[3-(8-Chloro-4-oxo-chromen-2-yl)-2-methoxy-6-methyl-phenoxy]cyclobutanecarboxylic acid], for which the IC50 is 3.13 µM in assay [1] and 9.26 µM in assay [2].
Turning to `O=C(O)CCOc1cc(-c2cc(=O)c3cccc(Cl)c3o2)c(OC(F)(F)F)cc1Br` [Example 42, 3-[2-Bromo-5-(8-chloro-4-oxo-chromen-2-yl)-4-(trifluoromethoxy)phenoxy]propanoic acid], the IC50 in assay [1] came to 2.63 µM.
Take `O=C(O)CCOc1cc(-c2cc(=O)c3cccc(Cl)c3o2)c(Cl)cc1Br` [Example 43, 3-[2-Bromo-4-chloro-5-(8-chloro-4-oxo-chromen-2-yl)phenoxy]propanoic acid]: the IC50 in assay [1] was found to be 11.7 µM.
As to `COc1c(-c2cc(=O)c3cccc(Cl)c3o2)ccc(Br)c1OCCCNC(=O)C(=O)O` [Example 44, 2-[3-[6-Bromo-3-(8-chloro-4-oxo-chromen-2-yl)-2-methoxy-phenoxy]propylamino]-2-oxo-acetic acid], the IC50 in assay [1] turned out to be 1.44 µM.
For the molecule `COc1cc(Br)c(OCCNC(=O)C(=O)O)cc1-c1cc(=O)c2cccc(Cl)c2o1` [Example 45, 2-[2-[2-Bromo-5-(8-chloro-4-oxo-chromen-2-yl)-4-methoxy-phenoxy]ethylamino]-2-oxo-acetic acid], in assay [1], the IC50 is 1.4 µM.
Consider `COc1cc(Br)c(OCCCNC(=O)C(=O)O)cc1-c1cc(=O)c2cccc(Cl)c2o1` [Example 46, 2-[3-[2-Bromo-5-(8-chloro-4-oxo-chromen-2-yl)-4-methoxy-phenoxy]propylamino]-2-oxo-acetic acid], for which, in assay [1], the IC50 came out at 0.61 µM.

(Values after patent US20220213049A1, “S[…]-4-ONE FOR THE TREATMENT AND PROPHYLAXIS OF HEPATITIS B VIRUS INFECTION” (priority 2019, published 2022).)
